The values that follow come from article PMC4028973 (Journal of the American Chemical Society, 2014).

Where two headings read alike, the source gives them in different places.

Experiment [1] concerns the target T1, AsbA (Bacillus anthracis, UniProt A0A0F7RJ52). Format: biochemical, B. anthracis.
The subject of a further experiment is S. typhimurium. Format: cell-based, Salmonella typhimurium.
The target in experiment [2] is T1, AsbA. Format: biochemical, B. anthracis. Particulars: read-out: IC50 against AsbA.
In the next experiment the test system is S. aureus (Newman). Format: cell-based.
The target of experiment [3] is T2, SbnE (Staphylococcus aureus, UniProt Q2G1M9).
T2 sequence (Q2G1M9 1-578): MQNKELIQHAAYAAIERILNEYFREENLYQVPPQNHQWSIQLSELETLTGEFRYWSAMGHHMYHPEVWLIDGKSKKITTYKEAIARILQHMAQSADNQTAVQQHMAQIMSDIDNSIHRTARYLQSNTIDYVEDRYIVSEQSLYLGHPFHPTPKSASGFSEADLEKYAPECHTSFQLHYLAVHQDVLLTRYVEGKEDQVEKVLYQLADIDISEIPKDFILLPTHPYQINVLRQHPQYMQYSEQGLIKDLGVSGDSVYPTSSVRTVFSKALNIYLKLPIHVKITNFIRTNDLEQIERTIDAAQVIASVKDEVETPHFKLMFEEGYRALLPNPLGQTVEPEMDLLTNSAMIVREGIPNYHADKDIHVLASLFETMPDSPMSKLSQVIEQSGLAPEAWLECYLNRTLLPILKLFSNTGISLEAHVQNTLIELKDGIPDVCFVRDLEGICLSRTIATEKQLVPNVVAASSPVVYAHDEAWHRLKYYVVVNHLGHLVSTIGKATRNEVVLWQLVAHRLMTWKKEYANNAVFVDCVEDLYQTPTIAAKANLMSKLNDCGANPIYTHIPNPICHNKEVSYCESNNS
Format: biochemical, S. aureus. Particulars: read-out: IC50 against SbnE.

In experiment [4] the test system is B. anthracis (Sterne 34F2). The format is cell-based.
For experiment [5], the target named is T2, SbnE. The format is biochemical, S. aureus.
In another experiment the target is AsbB (Bacillus anthracis, UniProt Q81RQ8). The format is biochemical, B. anthracis. Particulars: for IC50: read-out: IC50 against AsbB.
AsbB, sequence (Q81RQ8 whole entry, looked up): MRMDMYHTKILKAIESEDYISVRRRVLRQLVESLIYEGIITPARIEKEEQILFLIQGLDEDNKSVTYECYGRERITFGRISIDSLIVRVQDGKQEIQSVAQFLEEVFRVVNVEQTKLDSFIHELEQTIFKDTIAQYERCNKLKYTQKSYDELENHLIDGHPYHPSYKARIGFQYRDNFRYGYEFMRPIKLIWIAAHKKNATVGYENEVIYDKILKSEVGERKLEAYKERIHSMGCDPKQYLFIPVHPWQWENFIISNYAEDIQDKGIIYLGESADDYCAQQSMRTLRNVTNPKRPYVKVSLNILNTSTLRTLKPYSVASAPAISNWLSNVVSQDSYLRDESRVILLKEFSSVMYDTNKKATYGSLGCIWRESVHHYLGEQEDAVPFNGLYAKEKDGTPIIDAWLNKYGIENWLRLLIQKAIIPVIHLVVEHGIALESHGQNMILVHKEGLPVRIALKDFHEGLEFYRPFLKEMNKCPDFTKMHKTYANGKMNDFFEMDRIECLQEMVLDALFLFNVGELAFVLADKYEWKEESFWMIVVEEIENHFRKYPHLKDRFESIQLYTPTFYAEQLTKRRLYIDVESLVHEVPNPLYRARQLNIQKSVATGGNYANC
Another experiment deals with S. flexneri (BS103). Format: cell-based, Shigella flexneri.
Another experiment relates to MRSA (USA 300). The format is cell-based, S. aureus.
The subject of a further experiment is E. coli (MC 1061). The format is cell-based.

T1 sequence (A0A0F7RJ52 whole entry, looked up): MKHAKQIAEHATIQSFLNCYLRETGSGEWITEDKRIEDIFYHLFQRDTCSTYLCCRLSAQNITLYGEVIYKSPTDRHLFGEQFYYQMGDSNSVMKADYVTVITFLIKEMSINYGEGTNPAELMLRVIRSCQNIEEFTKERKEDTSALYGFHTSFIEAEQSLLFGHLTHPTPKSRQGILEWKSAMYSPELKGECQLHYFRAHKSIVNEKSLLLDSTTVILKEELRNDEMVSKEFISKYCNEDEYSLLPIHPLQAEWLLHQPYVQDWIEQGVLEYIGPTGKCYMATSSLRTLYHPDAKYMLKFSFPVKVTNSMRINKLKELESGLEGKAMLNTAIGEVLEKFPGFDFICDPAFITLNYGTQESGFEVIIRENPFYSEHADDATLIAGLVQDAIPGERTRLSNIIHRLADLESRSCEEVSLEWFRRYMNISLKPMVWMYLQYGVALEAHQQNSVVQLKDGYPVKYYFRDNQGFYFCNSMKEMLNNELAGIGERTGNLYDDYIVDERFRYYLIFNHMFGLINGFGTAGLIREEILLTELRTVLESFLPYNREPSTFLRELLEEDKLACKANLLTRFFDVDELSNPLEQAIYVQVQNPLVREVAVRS

Regarding `CCC(=O)[C@H](C)C[C@@H](C)C[C@H](C)CC[C@@H](O)C[C@@H](O)[C@@H](CC(C)C)[C@@H](O)c1cc(O)cc(O)c1` [BmcA, baulamycin A], the “mode of inhibition of AsbA” value at AsbA [1] is “reversible, competitive”. Besides, the Ki – broadly, a dissociation constant, usually derived from enzyme kinetics or from competition with a known ligand – amounted to 230 µM on AsbA [1] (read-out: Ki, AsbA, with respect to ATP); 110 µM on AsbA [1] (read-out: Ki, AsbA, with respect to citric acid); 170 µM at AsbA [1] (read-out: Ki, AsbA, with respect to polyamine substrate); 680 µM at SbnE [5] (read-out: Ki, SbnE, with respect to ATP); 50 µM at SbnE [5] (read-out: Ki, SbnE, with respect to citric acid); 210 µM at SbnE [5] (read-out: Ki, SbnE, with respect to polyamine substrate). The IC50 (in general, the concentration at which inhibition is half-maximal) is over 1000 µM with S. typhimurium (read-out: IC50, S. typhimurium, iron-depleted conditions); over 1000 µM in the experiment with S. typhimurium (read-out: IC50, S. typhimurium, iron-rich conditions); over 1000 µM with S. typhimurium (read-out: IDM IC50, S. typhimurium); over 1000 µM with S. typhimurium (read-out: IRM IC50, S. typhimurium); 180 µM on AsbA [2]; 69 µM in the experiment on S. aureus (Newman) (read-out: IDM IC50, S. aureus (Newman)). In addition, the half-inhibitory concentration (IC50) in the experiment with S. aureus (Newman) (read-out: IRM IC50, S. aureus (Newman)) is 86 µM; at SbnE [3] it was 4.8 µM; in experiment [4] (read-out: IDM IC50, B. anthracis (Sterne 34F2)) it was 110 µM; in experiment [4] (read-out: IRM IC50, B. anthracis (Sterne 34F2)), 120 µM; at AsbB it was over 1000 µM; with S. flexneri (BS103) (read-out: IDM IC50, S. flexneri (BS103)), 20 µM. Also, the IC50 in the experiment with S. flexneri (BS103) (read-out: IRM IC50, S. flexneri (BS103)) worked out at 46 µM; in the experiment on MRSA (USA 300) (read-out: IDM IC50, MRSA (USA 300)), 130 µM; in the experiment with MRSA (USA 300) (read-out: IRM IC50, MRSA (USA 300)), 130 µM; in the experiment with E. coli (MC 1061) (read-out: IDM IC50, E. coli (MC 1061)), 4.2 µM; in the experiment with E. coli (MC 1061) (read-out: IRM IC50, E. coli (MC 1061)), 150 µM. For the same compound, on SbnE [5], the “mode of inhibition of SbnE” value is “reversible, competitive”. For the same compound, at AsbB, the “inhibition against AsbB (in words)” value was “negligible”.

With `CC(=O)[C@H](C)C[C@@H](C)C[C@H](C)CC[C@@H](O)C[C@@H](O)[C@@H](CC(C)C)[C@@H](O)c1cc(O)cc(O)c1` [BmcB, baulamycin B], the IC50 is 200 µM at AsbA [2], 19 µM on SbnE [3] and over 1000 µM at AsbB. Further, in the experiment on S. aureus (Newman), the “potency against S. aureus (Newman) cultures compared with BmcA (in words)” value was “significantly less potent”. In addition, at AsbB, the “inhibition against AsbB (in words)” value was “negligible”.
